{"source": "ChEMBL document CHEMBL1201862", "about": "“PubChem BioAssay data set” (2004)", "assay_in_all_cases": "NCI tumour cell line growth inhibition, 48 h", "key": {"[1]": {"test_system": "786-0"}, "[2]": {"test_system": "A498"}, "[3]": {"test_system": "A549"}, "[4]": {"test_system": "ACHN"}, "[5]": {"test_system": "CAKI-1"}, "[6]": {"test_system": "CCRF-CEM"}, "[7]": {"test_system": "COLO 205"}, "[8]": {"test_system": "DU-145"}, "[9]": {"test_system": "EKVX"}, "[10]": {"test_system": "HCC 2998"}, "[11]": {"test_system": "HCT-116"}, "[12]": {"test_system": "HCT-15"}, "[13]": {"test_system": "HL-60"}, "[14]": {"test_system": "HOP-62"}, "[15]": {"test_system": "HOP-92"}, "[16]": {"test_system": "HT-29"}, "[17]": {"test_system": "IGROV-1"}, "[18]": {"test_system": "K562"}, "[19]": {"test_system": "KM12"}, "[20]": {"test_system": "LOX IMVI"}, "[21]": {"test_system": "M14"}, "[22]": {"test_system": "MCF7"}, "[23]": {"test_system": "MDA-MB-231"}, "[24]": {"test_system": "MDA-MB-435"}, "[25]": {"test_system": "MDA-N"}, "[26]": {"test_system": "MOLT-4"}, "[27]": {"test_system": "Malme-3M"}, "[28]": {"test_system": "NCI-H226"}, "[29]": {"test_system": "NCI-H23"}, "[30]": {"test_system": "NCI-H460"}, "[31]": {"test_system": "NCI-H522"}, "[32]": {"test_system": "NCI/ADR-RES"}, "[33]": {"test_system": "OVCAR-3"}, "[34]": {"test_system": "OVCAR-4"}, "[35]": {"test_system": "OVCAR-5"}, "[36]": {"test_system": "OVCAR-8"}, "[37]": {"test_system": "PC-3"}, "[38]": {"test_system": "RXF 393"}, "[39]": {"test_system": "SF-268"}, "[40]": {"test_system": "SF-295"}, "[41]": {"test_system": "SF-539"}, "[42]": {"test_system": "SK-MEL-28"}, "[43]": {"test_system": "SK-MEL-2"}, "[44]": {"test_system": "SK-MEL-5"}, "[45]": {"test_system": "SK-OV-3"}, "[46]": {"test_system": "SN12C"}, "[47]": {"test_system": "SNB-19"}, "[48]": {"test_system": "SNB-75"}, "[49]": {"test_system": "SR"}, "[50]": {"test_system": "SW-620"}, "[51]": {"test_system": "T47D"}, "[52]": {"test_system": "TK-10"}, "[53]": {"test_system": "U-251"}, "[54]": {"test_system": "UACC-257"}, "[55]": {"test_system": "UACC-62"}, "[56]": {"test_system": "RPMI-8226"}}, "note": "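All cell lines were grown in 96-well plates and treated with compound for 48 hours. Here, GI50 denotes the concentration required for 50% inhibition of growth.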 Calls of active or inactive are those of the source. Rule as the data show it: active = GI50 up to about 1.1 µM and inactive = higher.", "data": [{"smiles": "CC(=O)OCC1OC(n2c(-c3ccccc3)c(C(C)=O)c(-c3ccc(Cl)cc3)c(C#N)c2=S)C(OC(C)=O)C(OC(C)=O)C1OC(C)=O", "note": "(centres undefined)", "values": [{"measurement": "GI50", "setting": "[1]", "result": "> 100 µM (inactive)"}, {"measurement": "GI50", "setting": "[2]", "result": "> 100 µM (inactive)"}, {"measurement": "GI50", "setting": "[3]", "result": "> 100 µM (inactive)"}, {"measurement": "GI50", "setting": "[4]", "result": "> 100 µM (inactive)"}, {"measurement": "GI50", "setting": "[5]", "result": "99.8 µM (inactive)"}, {"measurement": "GI50", "setting": "[6]", "result": "29.9 µM (inactive)"}, {"measurement": "GI50", "setting": "[7]", "result": "> 100 µM (inactive)"}, {"measurement": "GI50", "setting": "[8]", "result": "> 100 µM (inactive)"}, {"measurement": "GI50", "setting": "[9]", "result": "> 100 µM (inactive)"}, {"measurement": "GI50", "setting": "[10]", "result": "> 100 µM (inactive)"}, {"measurement": "GI50", "setting": "[11]", "result": "83.2 µM (inactive)"}, {"measurement": "GI50", "setting": "[12]", "result": 11.6, "unit": "µM"}, {"measurement": "GI50", "setting": "[13]", "result": "> 100 µM (inactive)"}, {"measurement": "GI50", "setting": "[14]", "result": "> 100 µM (inactive)"}, {"measurement": "GI50", "setting": "[15]", "result": "0.601 µM (active)"}, {"measurement": "GI50", "setting": "[16]", "result": "> 100 µM (inactive)"}, {"measurement": "GI50", "setting": "[17]", "result": "> 100 µM (inactive)"}, {"measurement": "GI50", "setting": "[18]", "result": "> 100 µM (inactive)"}, {"measurement": "GI50", "setting": "[19]", "result": "> 100 µM (inactive)"}, {"measurement": "GI50", "setting": "[20]", "result": "> 100 µM (inactive)"}, {"measurement": "GI50", "setting": "[21]", "result": "> 100 µM (inactive)"}, {"measurement": "GI50", "setting": "[22]", "result": "> 100 µM (inactive)"}, {"measurement": "GI50", "setting": "[23]", "result": "70.3 µM (inactive)"}, {"measurement": "GI50", "setting": "[24]", "result": "> 100 µM (inactive)"}, {"measurement": "GI50", "setting": "[25]", "result": "62.8 µM (inactive)"}, {"measurement": "GI50", "setting": "[26]", "result": "> 100 µM (inactive)"}, {"measurement": "GI50", "setting": "[27]", "result": "> 100 µM (inactive)"}, {"measurement": "GI50", "setting": "[28]", "result": "> 100 µM (inactive)"}, {"measurement": "GI50", "setting": "[29]", "result": "> 100 µM (inactive)"}, {"measurement": "GI50", "setting": "[30]", "result": "26.8 µM (inactive)"}, {"measurement": "GI50", "setting": "[31]", "result": "> 100 µM (inactive)"}, {"measurement": "GI50", "setting": "[32]", "result": "> 100 µM (inactive)"}, {"measurement": "GI50", "setting": "[33]", "result": "> 100 µM (inactive)"}, {"measurement": "GI50", "setting": "[34]", "result": "83.8 µM (inactive)"}, {"measurement": "GI50", "setting": "[35]", "result": "> 100 µM (inactive)"}, {"measurement": "GI50", "setting": "[36]", "result": "> 100 µM (inactive)"}, {"measurement": "GI50", "setting": "[37]", "result": "1.93 µM (inactive)"}, {"measurement": "GI50", "setting": "[38]", "result": "65.5 µM (inactive)"}, {"measurement": "GI50", "setting": "[39]", "result": "50.4 µM (inactive)"}, {"measurement": "GI50", "setting": "[40]", "result": "> 100 µM (inactive)"}, {"measurement": "GI50", "setting": "[41]", "result": "> 100 µM (inactive)"}, {"measurement": "GI50", "setting": "[42]", "result": "> 100 µM (inactive)"}, {"measurement": "GI50", "setting": "[43]", "result": "< 0.01 µM (active)"}, {"measurement": "GI50", "setting": "[44]", "result": "21.2 µM (inactive)"}, {"measurement": "GI50", "setting": "[45]", "result": "> 100 µM (inactive)"}, {"measurement": "GI50", "setting": "[46]", "result": "> 100 µM (inactive)"}, {"measurement": "GI50", "setting": "[47]", "result": "> 100 µM (inactive)"}, {"measurement": "GI50", "setting": "[48]", "result": "32.3 µM (inactive)"}, {"measurement": "GI50", "setting": "[49]", "result": "> 100 µM (inactive)"}, {"measurement": "GI50", "setting": "[50]", "result": "> 100 µM (inactive)"}, {"measurement": "GI50", "setting": "[51]", "result": "> 100 µM (inactive)"}, {"measurement": "GI50", "setting": "[52]", "result": "> 100 µM (inactive)"}, {"measurement": "GI50", "setting": "[53]", "result": "> 100 µM (inactive)"}, {"measurement": "GI50", "setting": "[54]", "result": "> 100 µM (inactive)"}, {"measurement": "GI50", "setting": "[55]", "result": "> 100 µM (inactive)"}]}, {"smiles": "COc1ccc(C(=O)/C=C/c2ccc(OCC(=O)N3CCN(c4ccccc4)CC3)cc2)cc1OC", "values": [{"measurement": "GI50", "setting": "[1]", "result": "5.31 µM (inactive)"}, {"measurement": "GI50", "setting": "[3]", "result": "5.36 µM (inactive)"}, {"measurement": "GI50", "setting": "[5]", "result": "5.28 µM (inactive)"}, {"measurement": "GI50", "setting": "[6]", "result": "2.52 µM (inactive)"}, {"measurement": "GI50", "setting": "[7]", "result": "> 10 µM (inactive)"}, {"measurement": "GI50", "setting": "[8]", "result": "1.42 µM (inactive)"}, {"measurement": "GI50", "setting": "[9]", "result": "7.01 µM (inactive)"}, {"measurement": "GI50", "setting": "[10]", "result": "5.3 µM (inactive)"}, {"measurement": "GI50", "setting": "[12]", "result": 4.84, "unit": "µM"}, {"measurement": "GI50", "setting": "[13]", "result": "2.88 µM (inactive)"}, {"measurement": "GI50", "setting": "[14]", "result": "4.46 µM (inactive)"}, {"measurement": "GI50", "setting": "[16]", "result": "4.07 µM (inactive)"}, {"measurement": "GI50", "setting": "[17]", "result": "9.38 µM (inactive)"}, {"measurement": "GI50", "setting": "[18]", "result": "3.14 µM (inactive)"}, {"measurement": "GI50", "setting": "[19]", "result": "4.15 µM (inactive)"}, {"measurement": "GI50", "setting": "[21]", "result": "6.28 µM (inactive)"}, {"measurement": "GI50", "setting": "[22]", "result": "2.9 µM (inactive)"}, {"measurement": "GI50", "setting": "[23]", "result": "4.69 µM (inactive)"}, {"measurement": "GI50", "setting": "[25]", "result": "3.21 µM (inactive)"}, {"measurement": "GI50", "setting": "[26]", "result": "2.34 µM (inactive)"}, {"measurement": "GI50", "setting": "[27]", "result": "5.96 µM (inactive)"}, {"measurement": "GI50", "setting": "[29]", "result": "2.05 µM (inactive)"}, {"measurement": "GI50", "setting": "[36]", "result": "4.29 µM (inactive)"}, {"measurement": "GI50", "setting": "[37]", "result": "3.56 µM (inactive)"}, {"measurement": "GI50", "setting": "[56]", "result": "3.33 µM (inactive)"}, {"measurement": "GI50", "setting": "[38]", "result": "1.83 µM (inactive)"}, {"measurement": "GI50", "setting": "[39]", "result": "3.39 µM (inactive)"}, {"measurement": "GI50", "setting": "[40]", "result": "6.3 µM (inactive)"}, {"measurement": "GI50", "setting": "[42]", "result": "6.68 µM (inactive)"}, {"measurement": "GI50", "setting": "[44]", "result": "4.52 µM (inactive)"}, {"measurement": "GI50", "setting": "[45]", "result": "6.07 µM (inactive)"}, {"measurement": "GI50", "setting": "[46]", "result": "4.82 µM (inactive)"}, {"measurement": "GI50", "setting": "[48]", "result": "3.72 µM (inactive)"}, {"measurement": "GI50", "setting": "[49]", "result": "2.18 µM (inactive)"}, {"measurement": "GI50", "setting": "[50]", "result": "5.73 µM (inactive)"}, {"measurement": "GI50", "setting": "[51]", "result": "5.89 µM (inactive)"}, {"measurement": "GI50", "setting": "[52]", "result": "> 10 µM (inactive)"}, {"measurement": "GI50", "setting": "[54]", "result": "3.37 µM (inactive)"}, {"measurement": "GI50", "setting": "[55]", "result": "5.58 µM (inactive)"}]}]}
